Columns and labels:
Type in all cases: physicochemical
[1] = Partitioning indicator displacement assay (PIDA), CTAB/octanol drops with blue 1 dye indicator
Excerpt: The organic drops with fully dissolved indicator were exposed to an aqueous phase containing the target analyte. Over time the target analyte displaced the indicator and partitioned into the organic phase. In this experiment, the sensor had various concentrations of CTAB dissolved into the organic phase and used the maximum saturation ratio of blue dye to CTAB (Mechanism paper) to saturate each organic phase solution with the indicator, blue FCF dye. The displacement of blue dye from the organic phase was measured by monitoring optical transmittance using a color camera.
Five concentrations (60 mM, 30 mM, 15 mM, 7.5 mM, and 3.75 mM) of CTAB in octanol were placed in a tube along with 50 μM of blue dye dissolved in D.I. water, set on a shaker and allowed to equilibrate. An array was made with a sample of each concentration with the blue dye; with 11 drops (replicates) of each concentration and viewed using a DinoLite microscope. Four-hundred μM of aqueous red dye was flowed into the array and a picture was taken before addition of red dye and then every 5 seconds over a 15 minute period. […] Images were analyzed in imageJ, using […] within each replicate and 25 points for background analysis. The replicates were then separated by channel as gray values of the micrographs, and data normalized into absorbance values by subtracting the original dye free data from each replicate. The replicates were averaged per concentration and the data was transferred into percent transmittance using the formula […].
The organic solute cetyltrimethylammonium bromide (CTAB) was purchased from Sigma-Aldrich (St. Louis, USA). Erioglaucine disodium salt (Blue 1) was purchased from Sigma-Aldrich (St. Louis, MO, USA). 10 mL of 6 mM, 3 mM, 1.5 mM, 0.75 mM, and 0.375 mM blue 1 dye dissolved in deionized water and added to separate tubes containing 2 mL of different concentrations of CTAB in octanol (60 mM, 30 mM, 15 mM, 7.5 mM, and 3.75 mM), set on a shaker and allowed to equilibrate. After equilibrating for one week, the organic layer of each CTAB concentration containing the blue 1 dye was used to make the microarray.
50 nL octanol drops containing CTAB and blue 1 dye were placed onto microscope slides manufactured by Azer Scientific (Unifrost) using 0.1-10 μL disposable sterile pipet tips (VWR). A barrier of 0.3 mm PDMS was used as a spacer between the slide and cover slip (25 mm×25 mm) manufactured by VWR. Approximately 135 μL of analyte solution was added to the flow cell and moved quickly through the flow cell.
Samples were imaged with a digital microscope (Dino-Lite Pro2 AD-413T or Dino-Lite Edge AM4115ZT) at 100 Å˜ magnification. For imaging PIDA assays, a portable backlight stage (Dino-Lite MSBL-ZW1R) was used as a white light source and positioned under the bottom of the slide to illuminate the sample. Images for measurement of the transmittance were captured in brightfield mode. The time dependent partitioning was recorded at one frame per 20 second intervals.
Images were analyzed in imageJ, using 10 points within each replicate and 25 points for background analysis. The replicates were then separated into different RGB channels as gray values of the micrographs. The data was then normalized into transmittance values by subtracting the original dye free data from each replicate. The data was then converted into absorbance using the formula […]. Using the absorbance data, and the measured initial blue dye concentrations, the data was converted to blue dye concentration and then the replicates were averaged per concentration and the standard deviation was calculated. Graphs showing the separate channels of the micrographs, with the red color (b) or blue color (e) that was viewable with the DinoLite, and how they differed with concentration (B and E). The graphs are made from each of the 5 concentrations with their associated normalized absorbance values. […]

[2] = Cross-polarized microscopy of CTAB containing octanol droplets exposed to aqueous dye; conditions: for birefringent phase formation under crossed polarizers: CTAB containing droplet arrays exposed to dye (FIGS. 6A-6B); for anisotropic phase (birefringent ring) formation, single-dye system: 400 uM red dye only or 50 uM blue dye only, CTAB drops 7.5-60 mM, ring at 30 mM CTAB or higher
Protocol: Also, it can be observed that there is formation of an anisotropic phase in the 30 mM CTAB drops in the red and blue dye and the red dye only systems before the red dye fully partitions into the organic phase of the drop around 5 minutes. After 5 minutes, as the red dye continues to partition into the organic phase, this anisotropic phase seems to disappear. This can be observed by observing the absence of the anisotropic phase at 10 minutes and all later times for the 30 mM CTAB drops in the red and blue dye and the red dye only systems. […] This pattern of anisotropic phase formation before the red dye partitions supports the kinetic barrier mechanism which depends on the formation of some anisotropic phase on the interface of the drops with high CTAB concentration that hinders the red dye from partitioning in and allows the blue dye to partition in at a faster rate resulting in the observed high CTAB concentration blue dye selectivity and the low CTAB concentration red dye selectivity in the Bell, 2020 study.
Erioglaucine disodium salt (Blue 1) was purchased from Sigma-Aldrich (St. Louis, MO, USA). Allura red AC (Red 40) was obtained from TCI (Tokyo, Japan). For the birefringent ring experiments shown in FIG. 3, 400 uM red 40 dye and 50 uM blue 1 dye were dissolved in D.I. water. For the equilibrium tube experiment, dye concentrations were chosen based on the assumption that one dye molecule can be sequestered for every two CTAB molecules. The dye concentrations are chosen such that once this criterion is met, there will be enough dye left in the aqueous phase to be detected by a spectrophotometer so that the aqueous phase solution will have concentrations of 1700 uM, 850 uM, 425 uM, 213 uM, 106 uM for both red 40 dye and blue 1 dye.
The different lipid solutions were microarrayed using 0.1-10 μL disposable sterile pipet tips (VWR) directly onto the substrate. Drops were 0.1 uL in volume and only had contact with the bottom glass slide. After tapping the microarray onto the substrate, 0.3 mm thick PDMS was used as a spacer between the substrate and the cover. The two spacers will be fixed 1.8 cm apart onto the substrate. The coverslip will be placed carefully onto two spacers. Microscope slides manufactured by Azer Scientific (Unifrost) will be used as substrates. Microscope cover glasses (25 mm Å˜25 mm) manufactured by VWR will be used as slipcovers. Approximately 130 μL of aqueous solution was added to the right side of the flow cell and moved quickly through the flow cell. Prior to experiments, test samples will be incubated in 1 mL of deionized water to test for stability.
The blue 1 dye and red 40 dye used wavelengths of 629 nm and 501 nm respectively for absorbance measurements. Microarray samples requiring 30 min or less were imaged with a digital microscope (Dino-Lite Pro2 AD-413T or Dino-Lite Edge AM4115ZT) at 100 Å˜ magnification. For imaging lipid microarrays, a portable backlight stage (Dino-Lite MSBL-ZW1R) was used as a white light source and positioned under the bottom of the slide to illuminate the sample.

[3] = Equilibrium dye partitioning octanol/water with CTAB (tubes, absorbance of aqueous phase); conditions: for stoichiometric ratio, CTAB molecules needed to extract each dye molecule: calculated from dye left in the water after extraction, where not all dye was extracted
Excerpt: To examine the dye partitioning at equilibrium, the two-phase system at various CTAB concentrations, samples were left on a shaker for one week followed by centrifugation and optical characterization of the aqueous phase by absorbance spectroscopy (FIGS. 16A-16B). Tubes containing only the red dye and only blue dye were included in the experiment as well as tubes with the dye mixture. […] CTAB has a net charge of +1 whereas both dye molecules have a net charge of −2. Thus, two positively charged CTAB can effectively balance the negative charge of the dye molecules resulting in a zero net charge for a complex of two CTAB and one dye molecule.
In order to further study the equilibrium state at high CTAB concentrations, the setup was used to allow for observation of the equilibrated state at high CTAB concentrations with excess dye in the water. Using the previously calculated dye ratios needed for maximum saturation in the organic phase, the dye concentrations were chosen so that it would be impossible for both red and blue dye to fully partition into the organic phase. Tubes with a range of concentration from 3.75 mM to 60 mM CTAB dissolved in octanol and deionized water with blue and red dye concentrations ranging from 106 μM to 1700 μM. By observing which dye is left in the aqueous phase after equilibrium is reached, it can be determined which dye is more thermodynamically favorable in the organic phase at equilibrium. If the mechanism for the blue dye selectivity at high CTAB concentrations is thermodynamic in nature and depends on the formation of micelles in the organic phase, then at high CTAB concentrations the dye remaining in the aqueous phase should be the red dye and at low CTAB concentrations, the dye remaining in the aqueous phase should be the blue dye. However, if the mechanism is kinetic and relies on the formation of an aggregation phase at the interface of the two phases, then at all concentrations of CTAB the dye remaining in the aqueous phase should be the blue dye. […] From this it was concluded that the red dye is thermodynamically favored to partition into the CTAB containing organic phase.
Erioglaucine disodium salt (Blue 1) was purchased from Sigma-Aldrich (St. Louis, MO, USA). Allura red AC (Red 40) was obtained from TCI (Tokyo, Japan). […] The dye concentrations are chosen such that once this criterion is met, there will be enough dye left in the aqueous phase to be detected by a spectrophotometer so that the aqueous phase solution will have concentrations of 1700 uM, 850 uM, 425 uM, 213 uM, 106 uM for both red 40 dye and blue 1 dye. […]
The blue 1 dye and red 40 dye used wavelengths of 629 nm and 501 nm respectively for absorbance measurements. […]

[4] = Surfactant mediated selective dye partitioning octanol/water in tubes (non-equilibrated); conditions: mixture of red and blue dye in water, 4-48 hours
Protocol: Herein, detecting selective partitioning into droplets in a microfluidic device was scaled up to millimeter volumes in tubes, as shown in FIGS. 15A-15B and FIGS. 16A-16B. The selective partitioning behavior of the two dyes between the octanol and water phases was studied in test tubes (FIGS. 15A-15B), and dye concentrations quantified optically. First, solutions of CTAB in octanol and both dyes in water were prepared separately. Then both the aqueous and organic solutions were combined into one tube. After some time, one or both dyes partitioned into the organic phase. […] Due to the larger scale of the experiment, it took between 4-48 hours to observe the selectivity, as compared to 1-10 minutes in the microfluidic setup. (Bell, 2020.) A question about the mechanism of this surfactant mediated molecular recognition was then whether one dye is thermodynamically favored to partition into the octanol in the presence of CTAB or whether it is kinetically driven. […]
Erioglaucine disodium salt (Blue 1) was purchased from Sigma-Aldrich (St. Louis, MO, USA). […] The dye concentrations are chosen such that once this criterion is met, there will be enough dye left in the aqueous phase to be detected by a spectrophotometer so that the aqueous phase solution will have concentrations of 1700 uM, 850 uM, 425 uM, 213 uM, 106 uM for both red 40 dye and blue 1 dye.

[5] = 3.75 mM CTAB drops, blue 1 dye indicator, red 40 dye analyte, from TRF fitting

## CCCCCCCCCCCCCCCC[N+](C)(C)C.[Br-] [CTAB, cetyltrimethylammonium bromide]
[1]; [5]
  delay in onset time of displacement: no delay in onset time
  rate of displacement (decay constant): 0.48 s⁻¹
[1]; 7.5 mM CTAB drops, blue 1 dye indicator, red 40 dye analyte, from TRF fitting
  rate of displacement (decay constant): 0.42 s⁻¹
[1]; 30 mM CTAB drops, blue 1 dye indicator, red 40 dye analyte, from TRF fitting
  delayed onset time of displacement: 7.76 min
[1]; 30 mM CTAB, blue 1 dye indicator, red 40 dye analyte, from TRF fitting
  displacement rate: 0.07 s⁻¹

## O=S(=O)([O-])c1ccc(N=Nc2c(O)ccc3cc(S(=O)(=O)[O-])ccc23)cc1.[Na+].[Na+] [Sunset Yellow FCF]
[2]
  birefringent phase formation under crossed polarizers: not

## CCN(Cc1cccc(S(=O)(=O)[O-])c1)c1ccc(C(=C2C=CC(=[N+](CC)Cc3cccc(S(=O)(=O)[O-])c3)C=C2)c2ccccc2S(=O)(=O)[O-])cc1.[Na+].[Na+] [blue dye, Erioglaucine disodium salt]
[3]
  stoichiometric ratio, CTAB molecules needed to extract each dye molecule: approximately 2
[4]; high CTAB concentrations (30 mM and 60 mM) in octanol
  selective partitioning into the octanol phase: selectively partitioned into the octanol phase
[2]; disodium salt
  anisotropic phase (birefringent ring) formation, single-dye system: no anisotropic phase formation
[2]; listed as Blue Dye, disodium salt
  anisotropic phase (birefringent ring) formation, single-dye system: doesn't cause a ring

## COc1cc(S(=O)(=O)[O-])c(C)cc1N=Nc1c(O)ccc2cc(S(=O)(=O)[O-])ccc12.[Na+].[Na+] [red dye, Allura red AC]
[3]; 3.75 mM to 60 mM CTAB in octanol, blue and red dye 106 μM to 1700 μM, all concentrations tested
  partitioning at equilibrium with excess dye in the water: preferentially partition into the organic phase
[3]
  stoichiometric ratio, CTAB molecules needed to extract each dye molecule: approximately 2
[3]; low CTAB concentration (<15 mM), shaker one week
  partitioning at equilibrium: partitioned into the octanol phase
[4]; CTAB 0.5 mM and 1 mM in octanol
  selective partitioning into the octanol phase: selectively partitioned into the octanol phase
[2]
  anisotropic phase (birefringent ring) formation, single-dye system: formation of an anisotropic structure
  birefringent phase formation under crossed polarizers: birefringent phase forming
[2]; listed as Allura Red Dye
  anisotropic phase (birefringent ring) formation, single-dye system: causes a ring

## [Cl-].[Na+] [sodium chloride]
[1]; 50 mM analyte, after 10 minutes, 7.5 mM CTAB containing octanol drops (FIG. 7B)
  blue dye indicator displaced: ~48.3%

Reference: patent publication US12656355B2, “Two phase indicator displacement assay” (The Florida State University Research Foundation, Inc., priority 2022, dated 2026)
